Data reported in US7435555B2, “Asparagine hydroxylation of the CAD domain of a HIF protein” (Adelaide Research and Innovation Pty Ltd., priority 2001, dated 2008).

Legend:
Type in all cases: cell-based, human
[1] = system: Gal4DBD/HIF-2α 774-874 CAD chimera; assay: Gal4 response element luciferase reporter gene assay, GalDBD/HIF-2α CAD chimera; settings: cells treated 16 h at normoxia
Excerpt: FIG. 3. Expression vectors for either the Gal4 DNA Binding Domain or the indicated GalDBD HIF-1α and HIF-2α CAD chimeric proteins were contransfected with a Gal4 response element containing luciferase reporter gene and an internal control renilla luciferase reporter gene. […] Data are the average of three transfections±standard deviation.
FIG. 6. […] A) Sequence comparisons show conservation of the critical Asn between HIF-1α and HIF-2α across species. […] HEK293T cells were transfected according to the protocol of FIG. 3A and data represent the average of triplicate transfections +/standard deviation. (C). The wild type and mutant Ga14DBD/HIF chimeras used in A) are expressed at the same levels during transient transfection. Whole cell extracts of control or transfected cells were separated by SDS-PAGE and proteins detected by immunoblotting with antibodies directed against the C-terminus of HIF-1α (C) or HIF2α.
Human embryonic kidney 293T and rat pheochromocytoma PC12 cells were maintained in Dulbecco's Modified Eagles Medium (DMEM) supplemented with 10% foetal calf serum. For transient transfections, cells were plated onto 24 well plates at a density of 2.0×10^4 cells/well. […] After 16 hrs treatment, cells were harvested, Iysed and extracts analysed using the Dual Luciferase Reporter Assay Kit as outlined by the manufacturer (Promega). […]

[2] = system: HIF-2α CAD Asn851 hydroxylation; assay: Mass spectrometry of HIF-2α CAD purified from stable 293T cells (hydroxylation of Asn851); settings: DP 100 μM, 3 h; MALDI-TOF
Method: FIG. 5. A) Mass spectrometry of the HIF-2α CAD purified from cells incubated in normoxia or subjected to hypoxia (<1% O2, 3 h) or DP (100 μM, 3 h) treatments. A & B) Magnified views of the MALDI-TOF spectra corresponding to hydroxylation (+16 Da) of the peptide […] [SED ID NO. 1], which appears in the normoxic but not hypoxic or DP treated samples. […] Fragments were also observed for the modified sequence at m/z values of +16 Da higher than Asn851-containing fragments of the unmodified sequence. The boundary of the coincident and +16 Da fragment ions is indicated by the symbol N+ on the fragment ion spectrum of the modified sequence.
Samples for MS analysis were isolated from a 293T stable cell line that expressed HIF-2α774-874. After normoxic culture or treatment with hypoxia or DP as specified, cells were washed once with PBS, then lysed with binding buffer (100 mM Na-Phosphate pH8.0, 8M Urea, 0.1% NP40, 0.15M NaCl2, 5 mM imidazole, 1 mM βMe, 0.05 mM Na3VO4, 0.1 mM NaF, 0.5 mM β-Glycerophosphate, protease inhibitors). […]
Tryptic digests were analyzed using a Bruker Reflex MALDI-TOF-MS operated in the positive ion reflector mode. MALDI-TOF-MS data were acquired and analyzed using the Bruker XMass suite of software (Lopaticki et al., 1998; Pitt et al., 2000; Gorman et al., 1997). […]

[3] = system: HIF-2α CAD; assay: Immunoblot of HIF-2α CAD protein expression in stable transfected HEK 293T cells; settings: treatment 3 h, anti-myc immunoblot
Excerpt: FIG. 4. A) Schematic showing domains of HIF-2α and the construct containing the CAD region fused to a 6xHis tag/myc epitope which was used to generate a stable expressing cell line. B) Protein expression of the HIF-2α CAD is not increased by hypoxia or DP treatment. […] The 293T control lane contains extract from cells stably transfected with blank expression vector. C) Sypro-Ruby (Bio-Rad) stained SDSPAGE gel showing an example of HIF-2α CAD purified from stable transfected cells. Extracts from non transfected cells subjected to the same purification procedure lack the HIF-2α CAD band.The higher molecular weight contaminant that is co-purified by the procedure was identified as 60S ribosomal protein L27A by mass spectrometry.
Isolated cell pellets were lysed in whole cell extract (WCE) buffer (10 mM Tris pH7.9, 0.42M NaCl2, 0.5% NP40, 25% Glycerol, 0.2 mM EDTA, 1.5 mM MgCl2, 1 mM DTT, protease inhibitors) for 10 min at 4° C. Lysed extracts were then clarified by centrifugation at 12,000 g for 15 min. The protein concentration of clarified lysates was determined using the Bradford assay (Biorad). Protein samples were then resolved on 12.5% Tris-Tricine gels. For the HIF-2α774-874 stable line, 10 μg of WCE was analysed by immunoblotting with the anti-myc 9E10 monoclonal antibody. […]

[4] = system: Gal4DBD/HIF-1α 727-826 CAD chimera; assay: Gal4 response element luciferase reporter gene assay, GalDBD/HIF-1α CAD chimera; settings: cells treated 16 h at normoxia

**Q.** With c1ccc(-c2ccccn2)nc1 [DP, 2,2′-dipyridyl] as the molecule, how does the “activity of the Gal4DBD/HIF-2α CAD chimera on treatment of cells” value [1] read?
**A.** induces activity of the CADs

**Q.** And the “+16 Da (hydroxylated) form of peptide 846-YDCEVNVPVPGSSTLLQGR-864” value [2]?
**A.** complete lack of the +16 mass increase

**Q.** What about the “protein expression of the HIF-2α CAD” value [3] of the same molecule?
**A.** not increased

**Q.** What does the source list for COC(=O)CNC(=O)C(=O)OC [DMOG, dimethyl-oxalylglycine]?
**A.** activity of the Gal4DBD/HIF-1α CAD chimera on treatment of cells [4]: activation of the Gal4DBD/HIF-1α and Gal4DBD/HIF-2α CAD chimeras to a similar extent as that seen during treatment with hypoxia; activity of the Gal4DBD/HIF-2α CAD chimera on treatment of cells [1]: activation of the Gal4DBD/HIF-1α and Gal4DBD/HIF-2α CAD chimeras to a similar extent as that seen during treatment with hypoxia
